Results from patent US5273985A, “Glycerin derivative and its pharmacological use” (Eisai Co., Ltd., priority 1988, dated 1993).

Tests used:
[1] = system: platelet agglutination caused by PAF; experiment: Inhibition of platelet agglutination caused by human PAF (platelet-rich plasma, optical method of Born); format: cell-based; details: PAF at minimum concentration for maximum agglutination, read-out: Agglutination inhibiting activity IC50
Description: Effect on the Agglutination Caused by Human PAF
One part by volume of a 3.8% sodium citrate solution was added to 9 parts by volume of blood sampled from the forearm of a healthy adult to whom had been administered no medicine for at least two weeks. A platelet-rich plasma (PRP) was prepared by centrifugation. The inhibition of the platelet agglutination was determined by an optical method of Born et al. with a Hematolaser II® (a platelet agglutination meter of Niko Bioscience Co.). PAF was dissolved in Tyrode solution [Ca^++ (+)] to form a solution having the minimum concentration for causing the maximum agglutination. The test compound was dissolved in a physiological saline.
The agglutination inhibiting activity of the test compound was determined from the rate of inhibition of the maximum light transmittance (maximum agglutination rate) caused by PAF in control PRP. IC50 was determined from the inhibition curve.
The numeral in the column of the Test compound in Table 1 refers to the Example number of the compound.

[2] = system: blood pressure drop induced by PAF; experiment: Action on the blood pressure drop induced by PAF; format: in vivo, F344 rats; details: Rattus norvegicus, iv, 0.05 h, i.v., three minutes after 0.5 μg/kg PAF, ratio of blood pressure rise to drop, read-out: Recovery rate
Description: Action on the Blood Pressure Drop Induced by […]
Cannulae were inserted into the carotid and the jugular of each of F344 rats anesthetized with Pento (50 mg/kg, i. p.). The blood pressure was determined at the carotid and 0.5 ml/kg of PAF or the test compound was given through the jugular. Three minutes after the injection of 0.5 μg/kg of PAF, the test compound was given and the antagonism thereof was evaluated.
The recovery rate shown in Table 4 is the ratio of the blood pressure rise by the test compound to the drop thereof.

[3] = molecular target: T1, Human PAF Receptor (Homo sapiens, UniProt P25105); experiment: Human PAF receptor binding assay (3H-PAF, platelets); details: 3H-PAF 0.6 to 1 nM, 37° C., read-out: PAF receptor antagonism IC50
T1 construct: The platelets were sampled from healthy males by an ordinary method; endogenous in cells; host or cells: human platelets from healthy males (intact platelet suspension)
T1 sequence (P25105 whole entry): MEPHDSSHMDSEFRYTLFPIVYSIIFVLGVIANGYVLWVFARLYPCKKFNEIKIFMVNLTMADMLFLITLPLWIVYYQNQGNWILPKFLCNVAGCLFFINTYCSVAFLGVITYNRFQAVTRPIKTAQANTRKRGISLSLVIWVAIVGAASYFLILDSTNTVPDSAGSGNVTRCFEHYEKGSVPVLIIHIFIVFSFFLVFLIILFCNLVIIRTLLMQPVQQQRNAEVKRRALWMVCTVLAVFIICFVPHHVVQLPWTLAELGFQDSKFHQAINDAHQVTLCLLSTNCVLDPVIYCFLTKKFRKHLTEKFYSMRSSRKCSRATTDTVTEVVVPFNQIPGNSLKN
Description: Human PAF Receptor Binding Assay
The platelets were sampled from healthy males by an ordinary method and suspended in a binding buffer [10 mM phosphate-buffered saline (pH 7.0) containing 0.1 w/v % of BSA and 0.9 mM of CaCl2) to form a suspension having a concentration of 10^8 /460 μl. 20 μl of a solution of the test compound in the binding buffer was placed in a polypropylene tube and then 460 μl of the platelet suspension was added thereto. The mixture was subjected to a vortex treatment and then incubated at 37° C. for 6 min. 20 μl of a solution of ^3 H-PAF in the binding buffer (final ^3 H-PAF concentration: 0.6 to 1 nM) was added thereto and the mixture was incubated for 6 min. 3 ml of a washing solution (saline containing 0.1 w/v % of BSA) cooled with ice was added thereto to terminate the reaction. The reaction mixture was filtered by suction through a glass filter (Whatman GF/C). The glass filter was dried and the radioactivity thereof was determined with a liquid scintillation counter.
The inhibition % was calculated according to the following equation and IC50 so was determined by interpolation from the figure. [formula] wherein: total binding: dpm obtained when the concentration of the medicine or PAF is 0,
non-specific binding: dpm obtained when 10^-5 M of cold PAF was added.

[4] = Determination of stability in aqueous solution; format: physicochemical; details: pH 7.4, 37° C., 0.5M sodium phosphate; for half-life: read-out: Half-value period of disappearance due to hydrolysis (t1/2) (converted)
Description: Determination of Stability in Aqueous Solution
These compounds were unstable in a neutral or alkaline aqueous solution mainly due to the hydrolysis reaction of the N-acetyl or N-benzoyl group. The relationships between the pH and decomposition rate of several compounds were examined to find that they have the same pattern. The decomposition rate constant under conditions (pH 7.4, 37° C.) where they were relatively easily decomposed was determined and the stabilities of the compounds were compared with one another.
9 parts by volume of a buffer solution (0.5M sodium phosphate, pH 7.4) was added to 1 part by volume of an aqueous sample solution (1 mg/ml) and the mixture was kept at 37° C. The sampling was conducted at appropriate time intervals and the residual rate of an unreacted compound was determined by reversed phase high-performance liquid chromatography. Since the decomposition rate of most of the compounds can be approximately represented by the first-order decomposition rate equation, the decomposition rate constant was determined by the least squares method.

| SMILES | IC50 [1] [nM] | inhibition in vivo at 1 mg/kg [2] [%] | IC50 [3] [nM] | inhibition in vivo at 0.01 mg/kg [2] [%] | inhibition in vivo at 0.1 mg/kg [2] [%] | half-life [4] [h] | Half-value period of disappearance due to hydrolysis (t1/2) [4] |
| --- | --- | --- | --- | --- | --- | --- | --- |
| CC[n+]1ccccc1CN(C(C)=O)C(=O)OCC(COC(=O)Nc1cc(OC)c(OC)c(OC)c1)OC (stereo not drawn) [Example 1, 1-Ethyl-2-[N-acetyl-N-{2-methoxy-3-(3,4,5-trimethoxy)phenylcarbamoyloxypropoxy}carbonyl]aminomethylpyridinium iodide] | 380 | 21.7 | – | – | – | – | – |
| CC[n+]1ccccc1CN(C(=O)OCC(COC(=O)Nc1ccc2c(c1)Cc1ccccc1-2)OC)C(=O)c1ccccc1OC (stereo not drawn) [Example 2, 1-Ethyl-2-[N-{3-(2-fluoreneamino)carbonyloxy-2-methoxypropyloxy}carbonyl-N-(2-methoxy)benzoyl]aminomethylpyridinium chloride] | 62 | – | 8.9 | 79.2 | 97.4 | – | – |
| CC[n+]1ccccc1CN(C(=O)OCC(COC(=O)NCC1CCCO1)OC)C(=O)c1ccccc1OC (stereo not drawn) [Example 3, 1-Ethyl-2-[N-(2-methoxy)benzoyl-N-{2-methoxy-3-(2-tetrahydrofuranyl)methyl}carbamoyloxypropoxycarbonyl]aminomethylpyridinium chloride] | 310 | – | 300 | – | – | – | – |
| CCCCCCCCCCCCCCCCCCOCCCNC(=O)OCC(COC(=O)N(Cc1cccc[n+]1CC)C(=O)c1ccccc1OC)OC (stereo not drawn) [Example 4, 1-Ethyl-2-[N-(2-methoxy)benzoyl-N-{2-methoxy-3-(3-octadecyloxy)propylcarbamoyloxy}propoxycarbonyl]-aminomethylpyridinium chloride] | 140 | – | 3.5 | – | – | – | – |
| CC[n+]1ccccc1CN(C(=O)OCC(COC(=O)NCCCCCCCCCCNC(=O)N(C)C)OC)C(=O)c1ccccc1OC (stereo not drawn) [Example 5, 1-Ethyl-2-[N-{3-(10-N,N-dimethylcarbamylamino)decylcarbamoyloxy-2-methoxypropyloxy}carbonyl-N-(2-methoxy)benzoyl]aminomethylpyridinium chloride] | 210 | – | 1.9 | – | – | – | – |
| CCCCCCCCCCCCCCCCCCOC(=O)N1CCN(C(=O)OCC(COC(=O)N(Cc2cccc[n+]2CC)C(=O)c2ccccc2OC)OC)CC1 (stereo not drawn) [Example 6, 1-Ethyl-2-[N-(2-methoxy)benzoyl-N-{2-methoxy-3-(4-octadecyloxycarbonyl)piperazylcarbonyloxy}propoxycarbonyl]aminomethylpyridinium chloride] | 160 | – | 0.19 | 88.5 | – | 28.2 | – |
| CCOC(=O)C1CCC(CNC(=O)OCC(COC(=O)N(Cc2cccc[n+]2CC)C(=O)c2ccccc2OC)OC)CC1 (stereo not drawn) [Example 7, 1-Ethyl-2-[N-{3-(4-ethoxycarbonyl)cyclohexylmethyl-carbamoyloxy-2-methoxy}propyloxycarbonyl-N-(2-methoxy)benzoyl]aminomethylpyridinium iodide] | 2600 | – | – | – | – | – | – |
| CC[n+]1ccccc1CN(C(=O)OCC(COC(=O)NCCc1ccc(S(N)(=O)=O)cc1)OC)C(=O)c1ccccc1OC (stereo not drawn) [Example 8, 1-Ethyl-2-[N-(2-methoxy)benzoyl-N-{2-methoxy-3-(2-(4-sulfamoylphenyl)ethylcarbamoyloxy)propyloxy}carbonyl]aminomethylpyridinium iodide] | 110 | – | 140 | 70.1 | 96.7 | – | – |
| CC[n+]1ccccc1CN(C(=O)OCC(COC(=O)NCCCC(=O)N1CCOCC1)OC)C(=O)c1ccccc1OC (stereo not drawn) [Example 9, 1-Ethyl-2-[N-(2-methoxy)benzoyl-N-{3-(3-morpholinocarbonylpropan-1-yl)carbamoyloxy-2-methoxypropyloxy}carbonyl]aminomethylpyridinium chloride] | 260 | – | 790 | – | – | – | – |
| CCCCCOCCCCCOCCCCCNC(=O)OCC(COC(=O)N(Cc1cccc[n+]1CC)C(=O)c1ccccc1OC)OC (stereo not drawn) [Example 10, 1-Ethyl-2-[N-{3-(6,12-dioxaheptadecyl)carbamoyloxy-2-methoxypropyloxy}carbonyl-N-(2-methoxy)benzoyl]aminomethylpyridinium iodide] | 300 | – | 16 | 42.5 | 59.6 | – | – |
| CCCCCCCCCCCCCCCCCC(=O)N1CCN(C(=O)OCC(COC(=O)N(Cc2cccc[n+]2CC)C(=O)c2ccccc2OC)OC)CC1 (stereo not drawn) [Example 11, 1-Ethyl-2-[N-(2-methoxy)benzoyl-N-(2-methoxy-3-(4-stearoylpiperazinocarbonyl)oxypropyloxy}carbonyl]aminomethylpyridinium iodide] | 86 | – | 25 | – | – | – | – |
| CC[n+]1ccccc1CN(C(=O)OCC(COC(=O)NCc1ccc(S(=O)(=O)NCC2CCCCC2)cc1)OC)C(=O)c1ccccc1OC (stereo not drawn) [Example 12, 1-Ethyl-2-[N-{3(4-cyclohexylmethylsulfamoyl)benzylcarbamoyloxy-2-methoxypromyloxy}carbonyl-N-(2-methoxy)benzoyl]aminomethylpyridinium chloride] | 31 | – | – | – | – | – | – |
| CC[n+]1ccccc1CN(C(C)=O)C(=O)OCC(COCCc1cc(OC)c(OC)c(OC)c1)OC (stereo not drawn) [Example 16] | 380 | 67.8 | 3500 | – | – | – | – |
| CC[n+]1ccccc1CN(C(C)=O)C(=O)OCC(COc1cc(OC)c(OC)c(OC)c1)OC (stereo not drawn) [Example 17, 1-ethyl-2-(((N-acetyl-N-((2-methoxy-3-(3,4,5-trimethoxy)phenoxypropyloxy))carbonyl))) aminomethyl pyridium iodide] | 340 | 97.5 | 3500 | – | – | – | – |
| CC[n+]1ccccc1CN(C(=O)OCC(COCc1ccc(-c2ccccc2)cc1)OC)C(=O)c1ccccc1OC (stereo not drawn) [Example 19, 1-ethyl-2-(((N-((3-(4-biphenylmethyloxy-2-methoxypropyloxy))carbonyl-N-(2-methoxy)benzoyl)))aminomethylpyridinium chloride] | 25 | 74.9 | 2.2 | – | – | – | – |
| CC[n+]1ccccc1CN(C(=O)OCC(COCc1cc(OC)c(OCC2CCCCC2)c(OC)c1)OC)C(=O)c1ccccc1OC (stereo not drawn) [Example 20, 1-ethyl-2-(((N-((3-(4-cyclohexylmethoxy-3,5-dimethoxy)benzyloxy-2-methoxy))propyloxycarbonyl-N-(2-methoxy)benzoyl))) aminomethylpyridinium chloride] | 250 | 91.1 | 9.1 | – | – | – | – |
| CC[n+]1ccccc1CN(C(=O)OCC(COCc1cc(OC)c(OC)c(OC)c1)OC)C(=O)N(C)C (stereo not drawn) [Example 22, 1-ethyl-2-(((N-(N,N-dimethyl)carbamyl-N-((2-methoxy-3-(3,4,5-trimethoxy)benzyloxypropyloxy))carbonyl))) aminomethylpyridinium iodide] | – | – | – | – | – | – | infinite |
| CC[n+]1ccccc1CN1C(=O)CN(CC(COCc2cc(OC)c(OC)c(OC)c2)OC)C1=O (stereo not drawn) [Example 23] | 700 | – | – | – | – | 361 | – |
